# According to ChEMBL document CHEMBL1136853, “Synthesis and SAR of vinca alkaloid analogues” (Bioorg Med Chem Lett, 2009):
# What was measured:
# HeLa = assay: Cytotoxicity against human HeLa cells; type: functional
# MCF7 = assay: Cytotoxicity against human MCF7 cells; type: functional
Structure (SMILES),GI50 (HeLa),GI50 (MCF7)
CC[C@]1(O)C[C@H]2CN(CCc3c([nH]c4ccc(C(N)=O)cc34)[C@@](C(=O)OC)(c3cc4c(cc3OC)N(C)[C@H]3[C@@](O)(C(=O)OC)[C@H](OC(C)=O)[C@]5(CC)CC=CN6CC[C@]43[C@@H]65)C2)C1,> 1000 nM,> 1000 nM
CC[C@]1(O)C[C@H]2CN(CCc3c([nH]c4ccc(C#N)cc34)[C@@](C(=O)OC)(c3cc4c(cc3OC)N(C=O)[C@H]3[C@@](O)(C(=O)OC)[C@H](OC(C)=O)[C@]5(CC)CC=CN6CC[C@]43[C@@H]65)C2)C1,10 nM,4 nM
CCc1ccc2[nH]c3c(c2c1)CCN1C[C@H](C[C@@](O)(CC)C1)C[C@]3(C(=O)OC)c1cc2c(cc1OC)N(C)[C@H]1[C@@](O)(C(=O)OC)[C@H](OC(C)=O)[C@]3(CC)CC=CN4CC[C@]21[C@@H]43,0.3 nM,0.6 nM
CCSc1ccc2[nH]c3c(c2c1)CCN1C[C@H](C[C@@](O)(CC)C1)C[C@]3(C(=O)OC)c1cc2c(cc1OC)N(C)[C@H]1[C@@](O)(C(=O)OC)[C@H](OC(C)=O)[C@]3(CC)CC=CN4CC[C@]21[C@@H]43,2 nM,3 nM
CC[C@]1(O)C[C@H]2CN(CCc3c([nH]c4ccc(C(=O)O)cc34)[C@@](C(=O)OC)(c3cc4c(cc3OC)N(C)[C@H]3[C@@](O)(C(=O)OC)[C@H](OC(C)=O)[C@]5(CC)CC=CN6CC[C@]43[C@@H]65)C2)C1,> 1000 nM,> 1000 nM
CCC1=C[C@H]2CN(C1)Cc1c([nH]c3ccc(-c4cccc(F)c4)cc13)[C@@](C(=O)OC)(c1cc3c(cc1OC)N(C)[C@H]1[C@@](O)(C(=O)OC)[C@H](OC(C)=O)[C@]4(CC)CC=CN5CC[C@]31[C@@H]54)C2,> 1000 nM,> 1000 nM
CC[C@]1(O)C[C@H]2CN(CCc3c([nH]c4ccc(C(=O)OC)cc34)[C@@](C(=O)OC)(c3cc4c(cc3OC)N(C)[C@H]3[C@@](O)(C(=O)OC)[C@H](OC(C)=O)[C@]5(CC)CC=CN6CC[C@]43[C@@H]65)C2)C1,20 nM,30 nM
CC[C@]1(O)C[C@H]2CN(CCc3c([nH]c4ccc(SCC(=O)O)cc34)[C@@](C(=O)OC)(c3cc4c(cc3OC)N(C)[C@H]3[C@@](O)(C(=O)OC)[C@H](OC(C)=O)[C@]5(CC)CC=CN6CC[C@]43[C@@H]65)C2)C1,50 nM,200 nM
CC[C@]1(O)C[C@H]2CN(CCc3c([nH]c4ccc(N5CCCCC5)cc34)[C@@](C(=O)OC)(c3cc4c(cc3OC)N(C)[C@H]3[C@@](O)(C(=O)OC)[C@H](OC(C)=O)[C@]5(CC)CC=CN6CC[C@]43[C@@H]65)C2)C1,20 nM,30 nM
CC[C@]1(O)C[C@H]2CN(CCc3c([nH]c4ccc(-c5cccc(F)c5)cc34)[C@@](C(=O)OC)(c3cc4c(cc3OC)N(C)[C@H]3[C@@](O)(C(=O)OC)[C@H](OC(C)=O)[C@]5(CC)CC=CN6CC[C@]43[C@@H]65)C2)C1,300 nM,300 nM
CC[C@]1(O)C[C@H]2CN(CCc3c([nH]c4ccccc34)[C@@](C(=O)OC)(c3cc4c(cc3OC)N(C=O)[C@H]3[C@@](O)(C(=O)OC)[C@H](OC(C)=O)[C@]5(CC)C=CCN6CC[C@]43[C@@H]65)C2)C1 [VINCRISTINE],1.7 nM,1.5 nM
CCC1=C[C@H]2CN(C1)Cc1c([nH]c3ccc(C(=O)O)cc13)[C@@](C(=O)OC)(c1cc3c(cc1OC)N(C)[C@H]1[C@@](O)(C(=O)OC)[C@H](OC(C)=O)[C@]4(CC)CC=CN5CC[C@]31[C@@H]54)C2,> 1000 nM,> 1000 nM
CC[C@]1(O)C[C@H]2CN(CCc3c([nH]c4ccc(SC)cc34)[C@@](C(=O)OC)(c3cc4c(cc3OC)N(C=O)[C@H]3[C@@](O)(C(=O)OC)[C@H](OC(C)=O)[C@]5(CC)CC=CN6CC[C@]43[C@@H]65)C2)C1,3 nM,3 nM
CCC1=C[C@H]2CN(C1)Cc1c([nH]c3ccc(C(N)=O)cc13)[C@@](C(=O)OC)(c1cc3c(cc1OC)N(C)[C@H]1[C@@](O)(C(=O)OC)[C@H](OC(C)=O)[C@]4(CC)CC=CN5CC[C@]31[C@@H]54)C2,> 1000 nM,> 1000 nM
C#Cc1ccc2[nH]c3c(c2c1)CN1CC(CC)=C[C@@H](C1)C[C@]3(C(=O)OC)c1cc2c(cc1OC)N(C)[C@H]1[C@@](O)(C(=O)OC)[C@H](OC(C)=O)[C@]3(CC)CC=CN4CC[C@]21[C@@H]43,0.4 nM,5 nM
CC[C@]1(O)C[C@H]2CN(CCc3c([nH]c4ccc(C)cc34)[C@@](C(=O)OC)(c3cc4c(cc3OC)N(C=O)[C@H]3[C@@](O)(C(=O)OC)[C@H](OC(C)=O)[C@]5(CC)CC=CN6CC[C@]43[C@@H]65)C2)C1,1 nM,3 nM
CC[C@]1(O)C[C@H]2CN(CCc3c([nH]c4ccc(-c5ccccc5)cc34)[C@@](C(=O)OC)(c3cc4c(cc3OC)N(C=O)[C@H]3[C@@](O)(C(=O)OC)[C@H](OC(C)=O)[C@]5(CC)CC=CN6CC[C@]43[C@@H]65)C2)C1,50 nM,35 nM
CC[C@]1(O)C[C@H]2CN(CCc3c([nH]c4ccc(C#N)cc34)[C@@](C(=O)OC)(c3cc4c(cc3OC)N(C)[C@H]3[C@@](O)(C(=O)OC)[C@H](OC(C)=O)[C@]5(CC)CC=CN6CC[C@]43[C@@H]65)C2)C1,3 nM,3 nM
CCC1=C[C@H](C[C@](C(=O)OC)(c2cc3c(cc2OC)N(C)[C@H]2[C@@](O)(C(=O)OC)[C@H](OC(C)=O)[C@]4(CC)CC=CN5CC[C@]32[C@@H]54)c2[nH]c3ccc(N)cc3c2CC)CNC1,300 nM,600 nM
CC[C@]1(O)C[C@H]2CN(CCc3c([nH]c4ccc(-c5ccccc5)cc34)[C@@](C(=O)OC)(c3cc4c(cc3OC)N(C)[C@H]3[C@@](O)(C(=O)OC)[C@H](OC(C)=O)[C@]5(CC)CC=CN6CC[C@]43[C@@H]65)C2)C1,400 nM,300 nM
CC[C@]1(O)C[C@H]2CN(CCc3c([nH]c4ccc(N)cc34)[C@@](C(=O)OC)(c3cc4c(cc3OC)N(C)[C@H]3[C@@](O)(C(=O)OC)[C@H](OC(C)=O)[C@]5(CC)CC=CN6CC[C@]43[C@@H]65)C2)C1,200 nM,200 nM
CCSc1ccc2[nH]c3c(c2c1)CN1CC(CC)=C[C@@H](C1)C[C@]3(C(=O)OC)c1cc2c(cc1OC)N(C)[C@H]1[C@@](O)(C(=O)OC)[C@H](OC(C)=O)[C@]3(CC)CC=CN4CC[C@]21[C@@H]43,5 nM,20 nM
CC[C@]1(O)C[C@@H]2CN(CCc3c([nH]c4ccccc34)[C@@](C(=O)OC)(c3cc4c(cc3OC)N(C)[C@H]3[C@@](O)(C(=O)OC)[C@H](OC(C)=O)[C@]5(CC)C=CCN6CC[C@]43[C@@H]65)C2)C1 [VINBLASTINE],0.9 nM,0.4 nM
CCC1=C[C@H]2CN(C1)Cc1c([nH]c3ccc(C(C)=O)cc13)[C@@](C(=O)OC)(c1cc3c(cc1OC)N(C)[C@H]1[C@@](O)(C(=O)OC)[C@H](OC(C)=O)[C@]4(CC)CC=CN5CC[C@]31[C@@H]54)C2,4 nM,20 nM
CCC1=C[C@H]2CN(C1)Cc1c([nH]c3ccc(C#N)cc13)[C@@](C(=O)OC)(c1cc3c(cc1OC)N(C)[C@H]1[C@@](O)(C(=O)OC)[C@H](OC(C)=O)[C@]4(CC)CC=CN5CC[C@]31[C@@H]54)C2,1 nM,6 nM
